Test results reported in patent US20240002370A1, “PYRROLE-TYPE COMPOUNDS AND USES THEREOF FOR TREATING VIRAL INFECTIONS” (ENYO PHARMA, priority 2020, published 2024).

Tested on: H1N1 (influenza A/New Caledonia/20/99)
Experiment: microbe, parasite or virus in culture
Type: cell-based
Conditions: H1N1, A549, 48 h

COC1=CC(c2cc3c([nH]2)CCCC3)=N/C1=C\c1[nH]c(C)cc1C [Compound 3, (Z)-2-(2-((3,5-dimethyl-1H-pyrrol-2-yl)methylene)-3-methoxy-2H-pyrrol-5-yl)-4,5,6,7-tetrahydro-1H-indole]
IC50: 56 nM

COC1=CC(c2cc3c([nH]2)CCCC32CC2)=N/C1=C\c1[nH]c(C)cc1C [Compound 23, (Z)-2′-(2-((3,5-dimethyl-1H-pyrrol-2-yl)methylene)-3-methoxy-2H-pyrrol-5-yl)-1′,5′,6′,7′-tetrahydrospiro[cyclopropane-1,4′-indole]]
IC50: 77 nM

COC1=CC(c2cc3c([nH]2)CCCC3C)=N/C1=C\c1[nH]c(C)cc1C (centres unmarked) [Compound 7, (Z)-2-(2-((3,5-dimethyl-1H-pyrrol-2-yl)methylene)-3-methoxy-2H-pyrrol-5-yl)-4-methyl-4,5,6,7-tetrahydro-1H-indole]
IC50: 75 nM

COC1=CC(c2cc3ccccc3[nH]2)=N/C1=C\c1[nH]c(C)cc1C [Obatoclax, reference compound]
IC50: 91 nM

COC1=CC(c2cc3c([nH]2)CCC(C)C3)=N/C1=C\c1[nH]c(C)cc1C (centres unmarked) [Compound 19, (Z)-2-(2-((3,5-dimethyl-1H-pyrrol-2-yl)methylene)-3-methoxy-2H-pyrrol-5-yl)-5-methyl-4,5,6,7-tetrahydro-1H-indole]
IC50: 91 nM
